Experimental data from patent publication US10226449B2, “Heterocyclic modulators of lipid synthesis and combinations thereof” (priority 2013, dated 2019).
Read-outs that look alike come from different tables or passages of the source.

Key:
[1] = system: COLO-205 xenograft tumors; experiment: COLO-205 colon xenograft tumor growth inhibition with irinotecan
Procedure: (§1) The day of tumor cell inoculation is denoted as day 0. After inoculation, the animals were checked daily for morbidity and mortality. At the time of routine monitoring, the animals were checked for any effects of tumor growth and treatments on normal behavior such as mobility, visual estimation of food and water consumption, body weight gain/loss (body weights were measured twice weekly), eye/hair matting and any other abnormal signs. […] Mice were assigned into treatment groups using a randomized block design based upon their tumor volumes. […] Tumor sizes were measured twice weekly in two dimensions using a caliper, and the volumes were expressed in mm^3 using the formula: V=0.5*(a*b^2) where a and b were the long and short diameters of the tumor, respectively. The study was terminated 6 hours post the last dose 17-28 days after treatment initiation. Tumor growth inhibition (TGI) was calculated as the percentage of tumor growth, relative to tumor size at the start of treatment, in drug-treated groups compared to vehicle-treated groups. The Mann-Whitney U test was used to assess statistical significance of the mean tumor size between drug and vehicle-treated groups

HCV1b replicon = HCV1b replicon antiviral assay (luciferase reporter); format: cell-based; conditions: Hepatitis C virus; HCV genotype 1b replicon; read-out: HCV GT1b EC50
Procedure: The antiviral activities of the compounds were assessed using the HCV1b replicon system. […] HCV RNA replicon levels were assessed using the Bright-Glo™ Luciferase Assay System (Promega) to measure replicon-derived Luc activity.

[2] = mouse, in vivo
Procedure: (§2) The day of tumor cell inoculation is denoted as day 0. Drug treatment was initiated when the mean tumor size reached 149 mm^3 (day 15). […] Mice were assigned into treatment groups using a randomized block design based upon their tumor volumes. […] Tumor sizes were measured twice weekly in two dimensions using a caliper, and the volumes were expressed in mm^3 using the formula: V=0.5 a×b2 where a and b were the long and short diameters of the tumor, respectively. The study was terminated 6 hours post the 18th Qd dose on day 32 after tumor inoculation. Tumor growth inhibition (TGI) was calculated as the percentage of tumor growth, relative to tumor size at the start of treatment, in drug-treated groups compared to vehicle-treated groups. The Mann-Whitney U test was used to assess statistical significance of the mean tumor size between drug and vehicle-treated groups.

[3] = Tolerability in the single agent PANC-1 xenograft study; conditions: 30/20 mg/kg Q5d; 18-day study; PANC-1 xenograft mice, 10 per group
Procedure: as §2

CALU-6 xenograft tumors = experiment: CALU-6 lung xenograft tumor growth inhibition with paclitaxel; format: in vivo, BALB/c-nude mice; conditions: for TGI vs. Vehicle: day 21 post treatment start
Procedure: as §1
The study was terminated 21 days after initiation of treatment.

OVCAR-8 xenograft tumors = experiment: OVCAR-8 ovarian xenograft tumor growth inhibition with paclitaxel; format: in vivo, BALB/c-nude mice; conditions: day 21 post treatment start
Procedure: as §1
The study was terminated 28 days after initiation of treatment.

PANC-1 xenograft tumors = experiment: PANC-1 pancreatic xenograft tumor growth inhibition with gemcitabine; format: in vivo, BALB/c-nude mice
Procedure: as §1

[4] = mouse, in vivo; remark: listed apart in the source
Procedure: as §1

[5] = mouse, in vivo; remark: listed apart in the source
Procedure: as §1

[6] = mouse, in vivo; remark: listed apart in the source
Procedure: as §1

[7] = irinotecan 10 mg/kg ip Q4d, single agent

## CCc1c2c(nc3ccc(OC(=O)N4CCC(N5CCCCC5)CC4)cc13)-c1cc3c(c(=O)n1C2)COC(=O)[C@]3(O)CC [Irinotecan, irinotecan, reference compound]
[7]
  Body Weight Change: −10.2%
Single agent irinotecan group, 10 mg/kg Q4d
  body weight loss: 10.2%
[1]; [7]
  TGI vs. Vehicle: 57%

## Cc1ccc(C(=O)N2CCC(c3ccc(C#N)cc3)CC2)cc1-c1[nH]nc(Cl)c1C [Compound 253, 4-(1-(3-(3-Chloro-4-methyl-1H-pyrazol-5-yl)-4-methylbenzoyl)piperidin-4-yl)benzonitrile]
HCV1b replicon
  EC50: 0.22 µM

## C=C1C(=O)O[C@@H](CCCCCCCC)[C@@H]1C(=O)O (relative stereo) [Compound C75, trans-4-methylene-2-octyl-5-oxotetrahydrofuran-3-carboxylic acid]
[2]
  tolerability in PANC-1 xenograft tumor-bearing mice: drug-induced weight loss and toxicity
[3]
  mice died from drug-related toxicity: Six of the ten mice in the C75 treatment group died

## Cc1cc(C)c(-c2[nH]nc(C)c2C)cc1C(=O)N1CC(c2ccc(C#N)cc2)C1 [Compound 242, 4-(1-(5-(3,4-Dimethyl-1H-pyrazol-5-yl)-2,4-dimethylbenzoyl)azetidin-3-yl)benzonitrile]
CALU-6 xenograft tumors; Compound 242 60 mg/kg po Qd
  TGI vs. Vehicle: 14%
CALU-6 xenograft tumors; Compound 242 100 mg/kg po Qd
  TGI vs. Vehicle: 0%
CALU-6 xenograft tumors; Compound 242 single agent at 30, 60, or 100 mg/kg once daily for 21 days
  tumor growth inhibition, range over dose groups: 0-19%
OVCAR-8 xenograft tumors; Compound 242 30 mg/kg po Qd
  TGI vs. Vehicle: 46%
OVCAR-8 xenograft tumors; Compound 242 100 mg/kg po Qd
  TGI vs. Vehicle: 74%
PANC-1 xenograft tumors; Compound 242 30 mg/kg po Qd for 18 days
  TGI vs. Vehicle: 9%
[4]
  tolerability in CALU-6 xenograft tumor-bearing mice: well tolerated as a single or combination agent
[5]
  tolerability in OVCAR-8 xenograft tumor-bearing mice: well tolerated as a single or combination agent
[6]
  tolerability in PANC-1 xenograft tumor-bearing mice: well tolerated as a single or combination agent
mouse, in vivo, po, 100 mg/kg
  Body Weight Change: −12.0%
[1]; Compound 242 30 mg/kg po Qd for 20 days
  TGI vs. Vehicle: 6%

## CCN(CC)c1cc(C)c(C(=O)N2CCC(c3ccc(C#N)cc3)CC2)cc1-c1nnc(C)[nH]1 [Compound 129, 4-(1-(4-(diethylamino)-2-methyl-5-(5-methyl-4H-1,2,4-triazol-3-yl)benzoyl)piperidin-4-yl)benzonitrile]
HCV1b replicon
  EC50: 2.15 µM

## Nc1ccn([C@@H]2O[C@H](CO)[C@@H](O)C2(F)F)c(=O)n1 [Gemcitabine, gemcitabine, reference compound]
PANC-1 xenograft tumors; gemcitabine 10 mg/kg ip, single agent
  TGI vs. Vehicle: 31%

## CC(=O)O[C@H]1C(=O)[C@@]2(C)[C@H]([C@H](OC(=O)c3ccccc3)[C@]3(O)C[C@H](OC(=O)[C@H](O)[C@@H](NC(=O)c4ccccc4)c4ccccc4)C(C)=C1C3(C)C)[C@]1(OC(C)=O)CO[C@@H]1C[C@@H]2O [Paclitaxel, paclitaxel, reference compound]
CALU-6 xenograft tumors; paclitaxel 10 mg/kg ip Q4d
  TGI vs. Vehicle: 63%
OVCAR-8 xenograft tumors; paclitaxel 10 mg/kg ip Q4d
  TGI vs. Vehicle: 83%

## Cc1cc(C)c(-c2[nH]c(C3CCOCC3)nc2C)cc1C(=O)N1CC(F)(c2ccc(C#N)cc2)C1 [Compound 167, 4-(1-(2,4-Dimethyl-5-(4-methyl-2-(tetrahydro-2H-pyran-4-yl)-1H-imidazol-5-yl)benzoyl)-3-fluoroazetidin-3-yl)benzonitrile]
HCV1b replicon
  EC50: 0.025 µM
